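Assay format: 96-well plates, 48-hour exposure. GI50 marks 50% less growth.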 Calls of active or inactive are those of the source. No stated cut-off is given here; in the data, active = GI50 up to about 1.1 µM and inactive = higher.
Tests used:
Test in all cases: growth of human tumour cells (NCI), 48 h
MDA-N = system: MDA-N
MCF7 = system: MCF7
PC-3 = system: PC-3
T47D = system: T47D
SF-539 = system: SF-539
NCI-H460 = system: NCI-H460
M14 = system: M14
HCC 2998 = system: HCC 2998
HCT-116 = system: HCT-116
RPMI-8226 = system: RPMI-8226
SK-MEL-2 = system: SK-MEL-2
SF-268 = system: SF-268
MOLT-4 = system: MOLT-4
SNB-75 = system: SNB-75
HT-29 = system: HT-29
Hs-578T = system: Hs-578T
CCRF-CEM = system: CCRF-CEM
NCI-H226 = system: NCI-H226
Malme-3M = system: Malme-3M
A498 = system: A498
IGROV-1 = system: IGROV-1
NCI-H522 = system: NCI-H522
KM12 = system: KM12
SN12C = system: SN12C
LOX IMVI = system: LOX IMVI
OVCAR-3 = system: OVCAR-3
NCI-H23 = system: NCI-H23
K562 = system: K562
BT-549 = system: BT-549
ACHN = system: ACHN
HOP-92 = system: HOP-92
A549 = system: A549
DU-145 = system: DU-145
U-251 = system: U-251
OVCAR-4 = system: OVCAR-4
SK-MEL-28 = system: SK-MEL-28
NCI/ADR-RES = system: NCI/ADR-RES
COLO 205 = system: COLO 205
HL-60 = system: HL-60
TK-10 = system: TK-10
UACC-257 = system: UACC-257
OVCAR-8 = system: OVCAR-8
EKVX = system: EKVX
UO-31 = system: UO-31
RXF 393 = system: RXF 393
786-0 = system: 786-0
OVCAR-5 = system: OVCAR-5
UACC-62 = system: UACC-62
SNB-19 = system: SNB-19
HCT-15 = system: HCT-15
MDA-MB-435 = system: MDA-MB-435
SF-295 = system: SF-295
HOP-62 = system: HOP-62
SK-OV-3 = system: SK-OV-3
CAKI-1 = system: CAKI-1
SK-MEL-5 = system: SK-MEL-5
MDA-MB-231 = system: MDA-MB-231
SW-620 = system: SW-620
SR = system: SR

For `O=C(Nc1ccccc1)c1cc(S(=O)(=O)Nc2nc3cccnc3[nH]2)c(SSc2cc(Cl)c(C(=O)Nc3ccccc3)cc2S(=O)(=O)Nc2nc3cccnc3[nH]2)cc1Cl`, the GI50 (MDA-N) was > 100 µM (inactive), the GI50 (MCF7) was > 100 µM (inactive) and the GI50 (PC-3) was > 100 µM (inactive). The GI50 (T47D) was > 100 µM (inactive), the GI50 (SF-539) was > 100 µM (inactive) and the GI50 (NCI-H460) was > 100 µM (inactive). For the same molecule, the GI50 (M14) was > 100 µM (inactive), the GI50 (HCC 2998) was > 100 µM (inactive) and the GI50 (HCT-116) was > 100 µM (inactive). The GI50 (RPMI-8226) was > 100 µM (inactive), the GI50 (SK-MEL-2) was > 100 µM (inactive) and the GI50 (SF-268) was > 100 µM (inactive). For the same molecule, the GI50 (MOLT-4) was > 100 µM (inactive), the GI50 (SNB-75) was > 100 µM (inactive) and the GI50 (HT-29) was > 100 µM (inactive). The GI50 (Hs-578T) was > 100 µM (inactive), the GI50 (CCRF-CEM) was > 100 µM (inactive) and the GI50 (NCI-H226) was > 100 µM (inactive). For the same molecule, the GI50 (Malme-3M) was > 100 µM (inactive), the GI50 (A498) was > 100 µM (inactive) and the GI50 (IGROV-1) was > 100 µM (inactive). The GI50 (NCI-H522) was > 100 µM (inactive), the GI50 (KM12) was > 100 µM (inactive) and the GI50 (SN12C) was > 100 µM (inactive). For the same molecule, the GI50 (LOX IMVI) was > 100 µM (inactive), the GI50 (OVCAR-3) was > 100 µM (inactive) and the GI50 (NCI-H23) was > 100 µM (inactive). For the same molecule, the GI50 (K562) was > 100 µM (inactive), the GI50 (BT-549) was > 100 µM (inactive) and the GI50 (ACHN) was > 100 µM (inactive). The GI50 (HOP-92) was > 100 µM (inactive), the GI50 (A549) was > 100 µM (inactive) and the GI50 (DU-145) was > 100 µM (inactive). The GI50 (U-251) was > 100 µM (inactive), the GI50 (OVCAR-4) was > 100 µM (inactive) and the GI50 (SK-MEL-28) was > 100 µM (inactive). For the same molecule, the GI50 (NCI/ADR-RES) was > 100 µM (inactive), the GI50 (COLO 205) was > 100 µM (inactive) and the GI50 (HL-60) was > 100 µM (inactive). The GI50 (TK-10) was > 100 µM (inactive), the GI50 (UACC-257) was > 100 µM (inactive) and the GI50 (OVCAR-8) was > 100 µM (inactive). The GI50 (EKVX) was > 100 µM (inactive), the GI50 (UO-31) was > 100 µM (inactive) and the GI50 (RXF 393) was > 100 µM (inactive). The GI50 (786-0) was > 100 µM (inactive), the GI50 (OVCAR-5) was > 100 µM (inactive) and the GI50 (UACC-62) was > 100 µM (inactive). The GI50 (SNB-19) was > 100 µM (inactive), the GI50 (HCT-15) was > 100 µM and the GI50 (MDA-MB-435) was > 100 µM (inactive). For the same molecule, the GI50 (SF-295) was > 100 µM (inactive), the GI50 (HOP-62) was > 100 µM (inactive) and the GI50 (SK-OV-3) was > 100 µM (inactive). The GI50 (CAKI-1) was > 100 µM (inactive), the GI50 (SK-MEL-5) was > 100 µM (inactive) and the GI50 (MDA-MB-231) was > 100 µM (inactive). For the same molecule, the GI50 (SW-620) was > 100 µM (inactive).

`Cc1ccc(C2=Nc3c(N)nc(N)nc3NC(c3ccccc3)C2)cc1` (stereo not drawn) was tested, and the GI50 (SR) was 3.56 µM (inactive), the GI50 (MDA-N) was 2.12 µM (inactive) and the GI50 (MCF7) was 8.77 µM (inactive). For the same molecule, the GI50 (PC-3) was 10.4 µM (inactive), the GI50 (T47D) was 13.1 µM (inactive) and the GI50 (SF-539) was 12 µM (inactive). The GI50 (M14) was 6.4 µM (inactive), the GI50 (HCC 2998) was 4.44 µM (inactive) and the GI50 (HCT-116) was 4.11 µM (inactive). The GI50 (RPMI-8226) was 4.84 µM (inactive), the GI50 (SF-268) was 14.3 µM (inactive) and the GI50 (MOLT-4) was 7.43 µM (inactive). The GI50 (SNB-75) was 11.2 µM (inactive), the GI50 (HT-29) was 4.05 µM (inactive) and the GI50 (Hs-578T) was 14 µM (inactive). For the same molecule, the GI50 (CCRF-CEM) was 7.83 µM (inactive), the GI50 (NCI-H226) was 14.4 µM (inactive) and the GI50 (Malme-3M) was 9.66 µM (inactive). The GI50 (IGROV-1) was 5.36 µM (inactive), the GI50 (NCI-H522) was 3.13 µM (inactive) and the GI50 (SN12C) was 12.2 µM (inactive). The GI50 (LOX IMVI) was 10.1 µM (inactive), the GI50 (OVCAR-3) was 11.5 µM (inactive) and the GI50 (NCI-H23) was 11.1 µM (inactive). The GI50 (K562) was 3.51 µM (inactive), the GI50 (BT-549) was 7.23 µM (inactive) and the GI50 (ACHN) was 15.4 µM (inactive). The GI50 (HOP-92) was 11.7 µM (inactive), the GI50 (A549) was 10.2 µM (inactive) and the GI50 (DU-145) was 14.7 µM (inactive). The GI50 (U-251) was 12.8 µM (inactive), the GI50 (OVCAR-4) was 14.2 µM (inactive) and the GI50 (SK-MEL-28) was 14.4 µM (inactive). For the same molecule, the GI50 (NCI/ADR-RES) was 3.97 µM (inactive), the GI50 (TK-10) was 16.9 µM (inactive) and the GI50 (UACC-257) was 13.5 µM (inactive). The GI50 (OVCAR-8) was 13.1 µM (inactive), the GI50 (EKVX) was 12.4 µM (inactive) and the GI50 (UO-31) was 11.5 µM (inactive). The GI50 (RXF 393) was 7.36 µM (inactive), the GI50 (786-0) was 13.2 µM (inactive) and the GI50 (OVCAR-5) was 18 µM (inactive). For the same molecule, the GI50 (UACC-62) was 8.15 µM (inactive), the GI50 (SNB-19) was 14.2 µM (inactive) and the GI50 (HCT-15) was 3.1 µM. The GI50 (MDA-MB-435) was 1.92 µM (inactive), the GI50 (HOP-62) was 9.55 µM (inactive) and the GI50 (SK-OV-3) was 12.5 µM (inactive). The GI50 (CAKI-1) was 14 µM (inactive), the GI50 (MDA-MB-231) was 11.8 µM (inactive) and the GI50 (SW-620) was 4.02 µM (inactive).

`CC1(C)[C@@H]2C[C@H]1C(Cc1cccc(C[C@H]3c4cc(-c5ccccn5)ncc4[C@H]4C[C@@H]3C4(C)C)c1)c1cc(-c3ccccn3)ncc12` (stereo partly drawn) was tested, and the GI50 (MDA-N) was 0.729 µM (active), the GI50 (MCF7) was 0.547 µM (active) and the GI50 (PC-3) was 0.875 µM (active). The GI50 (T47D) was 1.71 µM (inactive), the GI50 (SF-539) was 1.28 µM (inactive) and the GI50 (NCI-H460) was 0.689 µM (active). For the same molecule, the GI50 (M14) was 0.485 µM (active), the GI50 (HCC 2998) was 0.923 µM (active) and the GI50 (HCT-116) was 0.428 µM (active). The GI50 (RPMI-8226) was 1.39 µM (inactive), the GI50 (SK-MEL-2) was 12.9 µM (inactive) and the GI50 (SF-268) was 0.513 µM (active). For the same molecule, the GI50 (MOLT-4) was 0.312 µM (active), the GI50 (SNB-75) was 5.05 µM (inactive) and the GI50 (HT-29) was 0.951 µM (active). The GI50 (Hs-578T) was > 100 µM (inactive), the GI50 (CCRF-CEM) was 0.337 µM (active) and the GI50 (A498) was 3.51 µM (inactive). The GI50 (IGROV-1) was 0.452 µM (active), the GI50 (NCI-H522) was 1.63 µM (inactive) and the GI50 (KM12) was 0.647 µM (active). For the same molecule, the GI50 (SN12C) was 0.834 µM (active), the GI50 (LOX IMVI) was 0.556 µM (active) and the GI50 (OVCAR-3) was 0.502 µM (active). For the same molecule, the GI50 (NCI-H23) was 1.82 µM (inactive), the GI50 (K562) was 0.435 µM (active) and the GI50 (BT-549) was 5.06 µM (inactive). The GI50 (ACHN) was 0.328 µM (active), the GI50 (A549) was 0.518 µM (active) and the GI50 (DU-145) was 0.993 µM (active). The GI50 (U-251) was 0.514 µM (active), the GI50 (OVCAR-4) was 4.58 µM (inactive) and the GI50 (SK-MEL-28) was 4.93 µM (inactive). For the same molecule, the GI50 (NCI/ADR-RES) was 4.06 µM (inactive), the GI50 (COLO 205) was 0.452 µM (active) and the GI50 (HL-60) was 0.295 µM (active). The GI50 (TK-10) was 2.44 µM (inactive), the GI50 (UACC-257) was 1.48 µM (inactive) and the GI50 (OVCAR-8) was 0.478 µM (active). For the same molecule, the GI50 (UO-31) was 0.785 µM (active), the GI50 (RXF 393) was 8.41 µM (inactive) and the GI50 (786-0) was 0.32 µM (active). For the same molecule, the GI50 (OVCAR-5) was 1.12 µM (active), the GI50 (UACC-62) was 0.499 µM (active) and the GI50 (SNB-19) was 1.61 µM (inactive). For the same molecule, the GI50 (HCT-15) was 1.09 µM, the GI50 (MDA-MB-435) was 0.548 µM (active) and the GI50 (SF-295) was 0.92 µM (active). The GI50 (HOP-62) was 1.28 µM (inactive), the GI50 (SK-OV-3) was 1.25 µM (inactive) and the GI50 (CAKI-1) was 1.74 µM (inactive). The GI50 (SK-MEL-5) was 0.303 µM (active), the GI50 (MDA-MB-231) was 22.6 µM (inactive) and the GI50 (SW-620) was 0.745 µM (active).
